For test [1], the target named is T1, Voltage-dependent N-type calcium channel subunit alpha-1B (Homo sapiens, UniProt Q00975). Description: Inhibition of N-type calcium channels in IMR-32 human neuroblastoma cells. It counts as functional, cell-based.
Target sequence in this assay (Q00975 whole entry): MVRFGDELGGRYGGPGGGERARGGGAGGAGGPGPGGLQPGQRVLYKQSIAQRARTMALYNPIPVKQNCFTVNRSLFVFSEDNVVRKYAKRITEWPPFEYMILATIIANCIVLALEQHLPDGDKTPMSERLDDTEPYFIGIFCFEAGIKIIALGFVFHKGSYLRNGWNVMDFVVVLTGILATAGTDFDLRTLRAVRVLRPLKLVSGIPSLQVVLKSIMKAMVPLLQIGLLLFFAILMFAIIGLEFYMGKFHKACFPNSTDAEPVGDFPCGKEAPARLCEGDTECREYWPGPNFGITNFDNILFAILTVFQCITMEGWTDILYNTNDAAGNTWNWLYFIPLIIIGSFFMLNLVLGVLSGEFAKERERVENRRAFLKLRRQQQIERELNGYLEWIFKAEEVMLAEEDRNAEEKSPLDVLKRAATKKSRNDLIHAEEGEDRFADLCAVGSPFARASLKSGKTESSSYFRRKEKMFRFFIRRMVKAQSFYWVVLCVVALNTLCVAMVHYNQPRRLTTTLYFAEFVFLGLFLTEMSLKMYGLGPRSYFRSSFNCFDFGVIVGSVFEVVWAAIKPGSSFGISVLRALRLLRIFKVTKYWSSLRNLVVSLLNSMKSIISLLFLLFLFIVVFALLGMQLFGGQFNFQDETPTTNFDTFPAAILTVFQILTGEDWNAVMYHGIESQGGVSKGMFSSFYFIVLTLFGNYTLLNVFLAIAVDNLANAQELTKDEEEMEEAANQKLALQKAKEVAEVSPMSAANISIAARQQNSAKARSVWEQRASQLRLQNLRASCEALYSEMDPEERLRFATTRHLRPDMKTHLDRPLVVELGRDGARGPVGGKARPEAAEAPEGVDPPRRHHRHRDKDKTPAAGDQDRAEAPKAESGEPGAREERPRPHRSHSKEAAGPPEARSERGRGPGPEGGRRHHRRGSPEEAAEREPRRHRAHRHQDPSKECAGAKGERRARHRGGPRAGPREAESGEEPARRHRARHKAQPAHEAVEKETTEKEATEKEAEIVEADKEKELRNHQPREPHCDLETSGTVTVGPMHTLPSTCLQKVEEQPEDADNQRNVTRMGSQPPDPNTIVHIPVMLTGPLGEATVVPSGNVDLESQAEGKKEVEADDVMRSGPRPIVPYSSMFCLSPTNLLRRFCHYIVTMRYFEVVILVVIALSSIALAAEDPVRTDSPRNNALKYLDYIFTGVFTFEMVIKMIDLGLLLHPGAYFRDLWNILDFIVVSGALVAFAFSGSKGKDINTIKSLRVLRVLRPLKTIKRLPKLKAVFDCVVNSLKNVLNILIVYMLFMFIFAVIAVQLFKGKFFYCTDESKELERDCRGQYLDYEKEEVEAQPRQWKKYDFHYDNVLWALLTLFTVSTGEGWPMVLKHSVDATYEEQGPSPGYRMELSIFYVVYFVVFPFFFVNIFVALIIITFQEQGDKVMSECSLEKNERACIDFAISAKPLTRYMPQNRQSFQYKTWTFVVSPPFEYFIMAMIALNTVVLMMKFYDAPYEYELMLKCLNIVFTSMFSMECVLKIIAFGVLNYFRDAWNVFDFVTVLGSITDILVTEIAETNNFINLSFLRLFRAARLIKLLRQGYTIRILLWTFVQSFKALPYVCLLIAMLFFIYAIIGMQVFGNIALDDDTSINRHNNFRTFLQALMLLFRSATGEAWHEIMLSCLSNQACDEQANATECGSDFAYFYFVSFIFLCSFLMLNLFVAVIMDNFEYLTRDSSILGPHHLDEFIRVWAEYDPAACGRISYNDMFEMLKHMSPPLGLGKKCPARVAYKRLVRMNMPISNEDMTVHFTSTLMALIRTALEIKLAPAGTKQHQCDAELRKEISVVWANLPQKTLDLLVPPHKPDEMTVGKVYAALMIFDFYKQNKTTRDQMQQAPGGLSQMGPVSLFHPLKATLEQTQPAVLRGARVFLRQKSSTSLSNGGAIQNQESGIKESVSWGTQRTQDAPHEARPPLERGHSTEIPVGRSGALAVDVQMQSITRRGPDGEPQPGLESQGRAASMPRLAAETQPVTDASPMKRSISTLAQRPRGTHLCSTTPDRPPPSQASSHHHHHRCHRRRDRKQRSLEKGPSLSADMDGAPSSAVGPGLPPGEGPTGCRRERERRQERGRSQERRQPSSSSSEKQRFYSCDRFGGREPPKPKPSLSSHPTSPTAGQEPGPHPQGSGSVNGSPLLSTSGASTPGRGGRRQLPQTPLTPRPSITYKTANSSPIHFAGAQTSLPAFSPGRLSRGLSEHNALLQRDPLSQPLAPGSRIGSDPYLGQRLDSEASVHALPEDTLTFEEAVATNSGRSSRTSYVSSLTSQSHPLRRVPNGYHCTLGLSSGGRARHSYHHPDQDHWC
Test [2] is described as follows: Blockade of Na+ channels in SCG neurons at 10 uM. Type of test: functional. The note with it: Rattus norvegicus.
The nature of test [3]: Blockade of K+ channels in SCG neurons at 10 uM. Type of test: functional. The note with it: Rattus norvegicus.
Test [4] deals with Voltage-gated L-type calcium channel (Rattus norvegicus, UniProt P22002+Q02485+P27732). Description: Inhibition of L-type calcium channels in GH-3 rat pituitary cells. Type of test: functional, cell-based. The note with it: pituitary gland cell.
In test [5] the target is T1, Voltage-dependent N-type calcium channel subunit alpha-1B. Nature of the test: Inhibition of N-type calcium channel in IMR-32 human neuroblastoma cell. It counts as functional.
Target sequence in this assay (Q00975 whole entry): as above
Test [6] has the same target. Nature of the test: Inhibition of N-type calcium channels in IMR-32 human neuroblastoma cells at 10 uM. Type of test: functional, cell-based.
Target sequence in this assay (Q00975 whole entry, looked up): as the sequence (Q00975 whole entry) above

Molecules are shown by their SMILES.

As to `Oc1c(/C=N\C2CCCCC2)ccc2cnccc12`, the IC50 in test [1] was 35 µM.
Take `CC(CCCN(Cc1ccccc1)Cc1ccccc1)(c1ccc(O)c(CN2CCCCCC2)c1)c1ccc(O)c(CN2CCCCCC2)c1`: the figures for the inhibition at 10 µM in test [2] and in test [3] were 24% and 28%, respectively. Also, the half-inhibitory concentration (IC50) in test [4] turned out to be 4.1 µM.
On to `CC(CCC(O)(c1ccccc1)c1ccccc1)(c1ccc(O)cc1)c1ccc(O)c(CN2CCCCCC2)c1` (configuration not stated), for which, in test [5], the IC50 amounted to 1.8 µM.
For `CC(CCC(O)(c1ccccc1)c1ccccc1)(c1ccc(O)c(CN2CCCCCC2)c1)c1ccc(O)c(CN2CCCCCC2)c1`, the inhibition at 10 µM in test [2] turned out to be 78%; in test [3] it was 61%. For the same compound, the 50% inhibitory concentration (IC50) in test [4] was 0.9 µM.
With `CC(C)(c1ccc(O)c(CN2CCCCCC2)c1)c1ccc(O)c(CN2CCCCCC2)c1`, the inhibition at 10 µM was 81% in test [2] and 77% in test [3]. Moreover, the half-maximal inhibitory concentration (IC50) was found to be 0.97 µM in test [5] and 2 µM in test [4].
Turning to `CC(CCC(c1ccccc1)c1ccccc1)(c1ccc(O)c(CN2CCCCCC2)c1)c1ccc(O)c(CN2CCCCCC2)c1`, the values for the inhibition at 10 µM in test [2] and in test [3] were 5% and 18%, respectively. Moreover, in test [4], the 50% inhibitory concentration (IC50) was determined as 9.1 µM.
Consider `O=C(NCC(c1ccc(O)c(CN2CCCCCC2)c1)c1ccc(O)c(CN2CCCCCC2)c1)C(c1ccccc1)c1ccccc1`, for which the IC50 in test [5] amounted to 1.8 µM.
For the compound `CC(CCC(=O)N(Cc1ccccc1)Cc1ccccc1)(c1ccc(O)cc1)c1ccc(O)cc1`, the inhibition in test [6] is -6%.

For orientation: IC50 means the concentration that gives 50% inhibition. A word on the inhibition: it is the relative decrease from the control value, in per cent.

The values are drawn from ChEMBL document CHEMBL1132091, “Synthesis and biological activity of substituted bis-(4-hydroxyphenyl)methanes as N-type calcium channel blockers” (Bioorg Med Chem Lett, 1999).
